Laboratory results: US20080274192A1, “Pharmaceutical Compositions Comprising an Amorphous Form of a Vegf-R-Inhibitor” (PFIZER INC., priority 2005, published 2008)
Converted amounts (≈) assume the structure as drawn.

Tests used:
Type in all cases: physicochemical
pKa of Compound A = settings: crystalline polymorphic Form IV
[1] = solubility in model fasted duodenal solution; settings: fassif, pH 6.5, 37° C.
Text: Compound A can exist in several different crystalline forms, as described in U.S. Provisional Application 60/624,665, filed on Nov. 2, 2004, which is incorporated herein by reference. Compound A in the crystalline form referred to as polymorphic Form IV has a pKa of about 4.2, and a solubility that is dependent on the pH of the solution, with the solubility being higher at low pH than at high pH. […] This pH-dependent solubility combined with a low in vivo rate of absorption results in low oral bioavailability, as well as significant subject-to-subject pharmacokinetic variability, for crystalline Compound A. Accordingly, there is a need to improve the bioavailability and reduce pharmacokinetic variability of Compound A relative to its crystalline form.

[2] = in vitro dissolution test in MFD solution, material added directly; settings: MFD solution pH 6.5, 37° C., 200 μgA/mL dosed, no OPC pre-wetting
Description: An in vitro dissolution test was performed to determine the dissolution performance of the solid amorphous dispersion of Compound A relative to crystalline Compound A. For this test, a sufficient amount of material was added to a microcentrifuge test tube so that the concentration of Compound A would have been 200 μgA/mL, if all of the compound had dissolved. The test was run in duplicate. The tubes were placed in a 37° C. temperature-controlled chamber, and 1.8 mL PBS at pH 6.5 and 290 mOsm/kg, containing 7.3 mM sodium taurocholic acid and 1.4 mM of 1-palmitoyl-2-oleyl-sn-glycero-3-phosphocholine, was added to each respective tube. The samples were quickly mixed using a vortex mixer for about 60 seconds. The samples were centrifuged at 13,000 G at 37° C. for 1 minute. The resulting supernatant solution was then sampled and diluted 1:6 (by volume) with methanol and analyzed by high-performance liquid chromatography (HPLC). HPLC analysis was performed using a Waters C18 column. The mobile phase consisted of 65% 20 mM ammonium phosphate, adjusted to pH 3 with H3PO4, and 35% acetonitrile. UV absorbance was measured at 350 nm. The contents of each tube were mixed on the vortex mixer and allowed to stand undisturbed at 37° C. until the next sample was taken. Samples were collected at 4, 10, 20, 40, 90, and 1200 minutes. […]

[3] = in vitro dissolution test in MFD solution, dosed as oral powder for constitution; settings: for AUC90 (area under the concentration-versus-time curve during the initial ninety minutes) / MDC90 (maximum dissolved concentration during the initial ninety minutes): MFD solution pH 6.5, 37° C., 200 μgA/mL dosed; for MDC90 (maximum dissolved concentration during the initial ninety minutes): pre-wetted with PBS/Methocel A/HPMCAS-H (OPC model)
Description: An in vitro dissolution test was performed to determine the dissolution performance of amorphous Compound A relative to crystalline Compound A. For this test, a sufficient amount of material was added to a microcentrifuge test tube so that the concentration of Compound A would have been 200 μgA/mL, if all of the compound had dissolved. The test was run in duplicate. First, 50 μL PBS containing 0.5 wt % Methocel A and 5 mg/mL HPMCAS-H was added to the sample in the tube and mixed using a vortex mixer, to model an oral powder for constitution dosage form. The tubes were placed in a 37° C. temperature-controlled chamber, and 1.8 mL PBS at pH 6.5 and 290 mOsm/kg, containing 7.3 mM sodium taurocholic acid and 1.4 mM of 1-palmitoyl-2-oleyl-sn-glycero-3-phosphocholine, was added to each respective tube. The samples were quickly mixed using a vortex mixer for about 60 seconds. The samples were centrifuged at 13,000 G at 37° C. for 1 minute. The resulting supernatant solution was then sampled and diluted 1:6 (by volume) with methanol and then analyzed by HPLC as described above. The contents of each tube were mixed on the vortex mixer and allowed to stand undisturbed at 37° C. until the next sample was taken. Samples were collected at 4, 10, 20, 40, 90, and 1200 minutes.
A similar test was performed with crystalline Compound A alone (Example 1), and a sufficient amount of material was added so that the concentration of compound would have been 200 μgA/mL, if all of the compound had dissolved.
The concentrations of Compound A obtained in these samples were used to determine the maximum dissolved concentration of Compound A (“MDC90”) and the area under the concentration-versus-time curve (“AUC90”) during the initial ninety minutes.
For these tests, a sufficient amount of material was added so that the concentration of Compound A would have been 200 μgA/mL, if all of the compound had dissolved. The results for the solid amorphous dispersion of Example 2 are included in Table 6, as are the results for tests with pure amorphous Compound A (Example 1) and crystalline Compound A (Example 1).

pKa (pKa of Compound A)	solubility [1] [µg/mL]	AUC90 (area under the concentration-versus-time curve during the initial ninety minutes) [2] [min * μgA/mL]	MDC90 (maximum dissolved concentration during the initial ninety minutes) [2] [μgA/mL]	AUC90 (area under the concentration-versus-time curve during the initial ninety minutes) ([3]; OPC model) [min * μgA/mL]	MDC90 (maximum dissolved concentration during the initial ninety minutes) [3] [μgA/mL]	AUC90 relative to crystalline Compound A ([3]; OPC model, MFD solution) [fold]	MDC90 relative to crystalline Compound A ([3]; OPC model, MFD solution) [fold]	Structure (SMILES)
~4.2	~4 (≈ 10.3 µM)							CNC(=O)c1ccccc1Sc1ccc2c(/C=C/c3ccccn3)n[nH]c2c1 [Compound A, 6-[2-(methylcarbamoyl)phenylsulfanyl]-3-E-[2-(pyridin-2-yl)ethenyl]indazole]
		200	3	300	3			CNC(=O)c1ccccc1Sc1ccc2c(/C=C/c3ccccn3)n[nH]c2c1 [Crystalline Compound A, 6-[2-(methylcarbamoyl)phenylsulfanyl]-3-E-[2-(pyridin-2-yl)ethenyl]indazole]
				1700	48	5.7	16	CNC(=O)c1ccccc1Sc1ccc2c(/C=C/c3ccccn3)n[nH]c2c1 [Example 1, 6-[2-(methylcarbamoyl)phenylsulfanyl]-3-E-[2-(pyridin-2-yl)ethenyl]indazole]
